Measured values as given in ChEMBL document CHEMBL5649166, “RIP3 induces apoptosis independent of pronecrotic kinase activity” (Mol Cell, 2014).
Calls of active or inactive are those of the source. No cut-off for these calls is given here.

What was measured:
[1] = target: RAC-alpha serine/threonine-protein kinase (Homo sapiens) (UniProt P31749); assay: Inhibition of human AKT1 using KGSGSGRPRTSSFAEG as substrate at 1 uM in presence of 32P-ATP by Hotspot assay relative to control; values are per cent of control
Chain of RAC-alpha serine/threonine-protein kinase (Homo sapiens) (P31749 whole entry): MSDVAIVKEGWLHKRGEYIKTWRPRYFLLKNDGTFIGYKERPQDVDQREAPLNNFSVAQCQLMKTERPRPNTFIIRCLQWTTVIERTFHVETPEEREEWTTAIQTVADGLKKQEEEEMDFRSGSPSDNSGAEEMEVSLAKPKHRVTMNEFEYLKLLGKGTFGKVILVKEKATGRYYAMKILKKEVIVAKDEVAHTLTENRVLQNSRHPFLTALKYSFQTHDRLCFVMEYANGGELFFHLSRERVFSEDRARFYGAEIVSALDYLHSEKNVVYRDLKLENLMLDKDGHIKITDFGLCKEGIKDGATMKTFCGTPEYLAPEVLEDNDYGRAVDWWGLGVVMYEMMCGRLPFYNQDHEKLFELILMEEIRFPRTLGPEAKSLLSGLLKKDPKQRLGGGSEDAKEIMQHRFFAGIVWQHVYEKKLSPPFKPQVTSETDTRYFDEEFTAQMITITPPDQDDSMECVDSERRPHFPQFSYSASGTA

[2] = target: SRSF protein kinase 3 (Homo sapiens) (UniProt Q9UPE1); assay: Inhibition of human MSSK1/STK23 using GRSRSRSRSR as substrate at 1 uM in presence of 32P-ATP by Hotspot assay relative to control; values are per cent of control
Chain of SRSF protein kinase 3 (Homo sapiens) (Q9UPE1 whole entry): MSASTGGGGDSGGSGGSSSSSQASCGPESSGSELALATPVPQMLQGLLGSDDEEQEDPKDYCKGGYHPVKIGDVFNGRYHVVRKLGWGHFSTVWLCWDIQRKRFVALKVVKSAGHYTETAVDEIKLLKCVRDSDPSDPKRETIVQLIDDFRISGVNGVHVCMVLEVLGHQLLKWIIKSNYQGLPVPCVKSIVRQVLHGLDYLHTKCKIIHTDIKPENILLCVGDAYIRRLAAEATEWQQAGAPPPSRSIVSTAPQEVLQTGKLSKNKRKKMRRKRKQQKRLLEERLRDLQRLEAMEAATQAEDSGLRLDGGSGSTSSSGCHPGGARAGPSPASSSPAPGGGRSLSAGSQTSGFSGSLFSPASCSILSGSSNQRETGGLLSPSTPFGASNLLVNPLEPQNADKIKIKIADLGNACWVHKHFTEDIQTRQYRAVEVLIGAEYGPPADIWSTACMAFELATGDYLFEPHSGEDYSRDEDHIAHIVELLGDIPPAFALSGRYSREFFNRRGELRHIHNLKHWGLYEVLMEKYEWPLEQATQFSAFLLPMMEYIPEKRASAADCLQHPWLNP

[3] = target: Serine/threonine-protein kinase pim-2 (Homo sapiens) (UniProt Q9P1W9); assay: Inhibition of human PIM2 using RSRHSSYPAGT as substrate at 1 uM in presence of 32P-ATP by Hotspot assay relative to control; values are per cent of control
Chain of Serine/threonine-protein kinase pim-2 (Homo sapiens) (Q9P1W9 whole entry, looked up): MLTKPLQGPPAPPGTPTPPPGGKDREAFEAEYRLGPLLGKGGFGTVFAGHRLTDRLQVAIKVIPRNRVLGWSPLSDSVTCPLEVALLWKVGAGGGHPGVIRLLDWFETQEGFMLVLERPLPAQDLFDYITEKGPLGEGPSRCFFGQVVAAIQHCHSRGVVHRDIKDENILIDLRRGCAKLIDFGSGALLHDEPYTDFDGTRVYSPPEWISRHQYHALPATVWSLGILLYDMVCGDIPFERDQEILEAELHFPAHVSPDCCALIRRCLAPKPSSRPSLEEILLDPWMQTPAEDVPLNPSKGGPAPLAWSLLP

[4] = target: Receptor tyrosine-protein kinase erbB-4 (Homo sapiens) (UniProt Q15303); assay: Inhibition of human ERBB4/HER4 using poly[Glu:Tyr] (4:1) as substrate at 1 uM in presence of 32P-ATP by Hotspot assay relative to control; values are per cent of control
Chain of Receptor tyrosine-protein kinase erbB-4 (Homo sapiens) (Q15303 whole entry): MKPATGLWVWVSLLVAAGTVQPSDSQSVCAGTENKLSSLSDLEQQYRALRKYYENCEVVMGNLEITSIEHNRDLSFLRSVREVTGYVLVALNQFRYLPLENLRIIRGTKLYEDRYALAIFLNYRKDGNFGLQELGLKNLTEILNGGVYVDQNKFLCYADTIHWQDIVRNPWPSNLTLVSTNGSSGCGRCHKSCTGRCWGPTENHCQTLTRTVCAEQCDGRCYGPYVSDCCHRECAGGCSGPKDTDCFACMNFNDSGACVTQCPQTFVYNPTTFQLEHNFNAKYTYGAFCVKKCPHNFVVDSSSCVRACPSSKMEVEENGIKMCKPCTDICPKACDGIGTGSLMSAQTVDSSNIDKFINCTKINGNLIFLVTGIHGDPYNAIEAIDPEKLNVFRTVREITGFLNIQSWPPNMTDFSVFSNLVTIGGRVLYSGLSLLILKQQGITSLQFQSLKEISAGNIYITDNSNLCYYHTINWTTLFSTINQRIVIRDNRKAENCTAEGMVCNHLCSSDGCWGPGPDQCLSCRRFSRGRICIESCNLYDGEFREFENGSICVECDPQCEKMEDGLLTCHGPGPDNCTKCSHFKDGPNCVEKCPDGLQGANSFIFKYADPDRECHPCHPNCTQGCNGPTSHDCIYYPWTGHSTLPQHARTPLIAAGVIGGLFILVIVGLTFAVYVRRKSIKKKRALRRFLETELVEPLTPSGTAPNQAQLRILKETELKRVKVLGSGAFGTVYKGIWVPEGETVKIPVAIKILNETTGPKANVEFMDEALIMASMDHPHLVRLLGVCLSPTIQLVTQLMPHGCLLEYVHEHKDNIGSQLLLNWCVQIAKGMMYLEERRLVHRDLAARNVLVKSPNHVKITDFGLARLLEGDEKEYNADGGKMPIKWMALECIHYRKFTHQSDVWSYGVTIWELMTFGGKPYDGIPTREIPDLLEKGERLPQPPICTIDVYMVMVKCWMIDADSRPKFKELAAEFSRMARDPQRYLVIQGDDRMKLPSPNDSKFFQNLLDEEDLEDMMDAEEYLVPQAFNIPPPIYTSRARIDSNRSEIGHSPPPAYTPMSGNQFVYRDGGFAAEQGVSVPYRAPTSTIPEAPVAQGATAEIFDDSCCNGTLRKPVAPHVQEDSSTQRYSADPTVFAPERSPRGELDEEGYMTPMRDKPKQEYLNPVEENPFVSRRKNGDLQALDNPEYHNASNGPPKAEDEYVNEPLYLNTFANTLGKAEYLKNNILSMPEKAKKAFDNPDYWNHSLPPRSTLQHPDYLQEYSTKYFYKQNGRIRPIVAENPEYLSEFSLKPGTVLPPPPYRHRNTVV

[5] = target: Death-associated protein kinase 3 (Homo sapiens) (UniProt O43293); assay: Inhibition of human ZIPK/DAPK3 using KKLNRTLSFAEPG as substrate at 1 uM in presence of 32P-ATP by Hotspot assay relative to control; values are per cent of control
Chain of Death-associated protein kinase 3 (Homo sapiens) (O43293 whole entry, looked up): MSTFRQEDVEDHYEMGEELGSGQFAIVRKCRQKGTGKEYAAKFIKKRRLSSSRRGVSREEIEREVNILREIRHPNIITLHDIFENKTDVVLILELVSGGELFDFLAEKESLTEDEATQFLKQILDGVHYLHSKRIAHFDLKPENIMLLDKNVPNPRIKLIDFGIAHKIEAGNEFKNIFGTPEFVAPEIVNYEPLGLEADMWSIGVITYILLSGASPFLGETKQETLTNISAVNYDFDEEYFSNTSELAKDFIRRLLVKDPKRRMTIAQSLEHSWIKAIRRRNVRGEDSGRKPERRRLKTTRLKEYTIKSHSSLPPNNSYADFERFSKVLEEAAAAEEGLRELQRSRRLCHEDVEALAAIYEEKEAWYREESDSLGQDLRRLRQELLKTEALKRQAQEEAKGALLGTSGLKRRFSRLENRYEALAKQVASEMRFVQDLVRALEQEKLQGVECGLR

[6] = target: Serine/threonine-protein kinase PAK 4 (Homo sapiens) (UniProt O96013); assay: Inhibition of human PAK4 using RRRLSFAEPG as substrate at 1 uM in presence of 32P-ATP by Hotspot assay relative to control; values are per cent of control
Chain of Serine/threonine-protein kinase PAK 4 (Homo sapiens) (O96013 whole entry, looked up): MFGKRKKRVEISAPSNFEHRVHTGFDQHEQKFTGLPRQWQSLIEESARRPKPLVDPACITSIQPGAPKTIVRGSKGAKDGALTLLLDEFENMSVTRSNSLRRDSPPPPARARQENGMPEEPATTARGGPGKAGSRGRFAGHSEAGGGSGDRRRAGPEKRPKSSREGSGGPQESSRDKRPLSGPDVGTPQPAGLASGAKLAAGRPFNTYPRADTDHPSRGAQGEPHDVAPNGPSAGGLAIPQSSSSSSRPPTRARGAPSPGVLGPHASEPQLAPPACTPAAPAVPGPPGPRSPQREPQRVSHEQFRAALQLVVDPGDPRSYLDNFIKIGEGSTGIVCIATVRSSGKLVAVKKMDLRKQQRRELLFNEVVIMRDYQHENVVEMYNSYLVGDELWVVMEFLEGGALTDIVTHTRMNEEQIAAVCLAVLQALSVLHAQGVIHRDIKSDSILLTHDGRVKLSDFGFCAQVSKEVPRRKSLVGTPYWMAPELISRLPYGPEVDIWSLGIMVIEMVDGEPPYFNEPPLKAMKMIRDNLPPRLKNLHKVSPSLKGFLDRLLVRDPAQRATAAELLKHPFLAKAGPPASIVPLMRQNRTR

[7] = target: T1, Activin receptor type-1 (Homo sapiens) (UniProt Q04771); assay: Inhibition of human ALK2/ACVR1 using casein as substrate at 1 uM in presence of 32P-ATP by Hotspot assay relative to control; values are per cent of control
T1 sequence (whole entry): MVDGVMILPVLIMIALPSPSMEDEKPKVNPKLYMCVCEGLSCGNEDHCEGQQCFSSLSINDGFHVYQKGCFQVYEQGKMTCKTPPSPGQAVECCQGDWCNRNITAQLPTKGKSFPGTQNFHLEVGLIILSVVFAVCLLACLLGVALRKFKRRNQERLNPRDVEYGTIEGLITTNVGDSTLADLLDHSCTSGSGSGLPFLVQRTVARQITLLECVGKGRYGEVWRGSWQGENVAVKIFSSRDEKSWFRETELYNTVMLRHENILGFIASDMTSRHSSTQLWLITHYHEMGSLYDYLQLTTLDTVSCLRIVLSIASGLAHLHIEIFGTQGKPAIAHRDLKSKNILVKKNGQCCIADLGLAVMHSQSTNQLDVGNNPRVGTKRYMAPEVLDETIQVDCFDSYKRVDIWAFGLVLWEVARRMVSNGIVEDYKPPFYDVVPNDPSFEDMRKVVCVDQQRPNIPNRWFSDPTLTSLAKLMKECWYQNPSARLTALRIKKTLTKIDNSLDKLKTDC

[8] = target: Non-receptor tyrosine-protein kinase TYK2 (Homo sapiens) (UniProt P29597); assay: Inhibition of human TYK2 using KKSRGDYMTMQIG as substrate at 1 uM in presence of 32P-ATP by Hotspot assay relative to control; values are per cent of control
Chain of Non-receptor tyrosine-protein kinase TYK2 (Homo sapiens) (P29597 whole entry): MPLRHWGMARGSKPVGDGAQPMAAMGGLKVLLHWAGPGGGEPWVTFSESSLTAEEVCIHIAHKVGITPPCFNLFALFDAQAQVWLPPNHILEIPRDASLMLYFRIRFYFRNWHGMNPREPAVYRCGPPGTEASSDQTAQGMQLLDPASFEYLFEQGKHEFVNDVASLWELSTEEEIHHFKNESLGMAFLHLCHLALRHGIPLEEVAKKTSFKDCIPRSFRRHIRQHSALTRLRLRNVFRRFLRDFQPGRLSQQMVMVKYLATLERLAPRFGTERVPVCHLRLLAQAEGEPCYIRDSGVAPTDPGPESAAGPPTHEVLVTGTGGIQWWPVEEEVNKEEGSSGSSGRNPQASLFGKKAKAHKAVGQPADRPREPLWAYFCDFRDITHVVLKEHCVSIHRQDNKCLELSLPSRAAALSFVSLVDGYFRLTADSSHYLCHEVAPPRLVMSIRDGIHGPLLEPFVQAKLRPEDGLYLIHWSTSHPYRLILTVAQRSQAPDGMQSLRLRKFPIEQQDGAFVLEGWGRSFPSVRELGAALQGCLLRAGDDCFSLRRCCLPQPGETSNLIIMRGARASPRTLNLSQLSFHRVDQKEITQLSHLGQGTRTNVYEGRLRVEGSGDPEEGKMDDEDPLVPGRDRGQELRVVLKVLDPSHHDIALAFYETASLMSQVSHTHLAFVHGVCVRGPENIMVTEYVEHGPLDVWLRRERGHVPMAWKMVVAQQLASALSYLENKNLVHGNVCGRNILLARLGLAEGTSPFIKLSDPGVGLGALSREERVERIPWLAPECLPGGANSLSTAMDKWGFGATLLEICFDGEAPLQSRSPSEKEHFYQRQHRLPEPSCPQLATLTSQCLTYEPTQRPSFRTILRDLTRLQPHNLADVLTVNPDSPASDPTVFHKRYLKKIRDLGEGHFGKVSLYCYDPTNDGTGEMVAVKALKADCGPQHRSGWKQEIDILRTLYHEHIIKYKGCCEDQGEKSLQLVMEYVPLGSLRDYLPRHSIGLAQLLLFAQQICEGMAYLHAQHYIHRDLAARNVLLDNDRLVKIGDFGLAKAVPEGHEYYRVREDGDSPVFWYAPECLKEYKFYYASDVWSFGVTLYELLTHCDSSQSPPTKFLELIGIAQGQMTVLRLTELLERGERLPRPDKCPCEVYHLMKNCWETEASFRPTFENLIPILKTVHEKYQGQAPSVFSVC

[9] = target: Serine/threonine-protein kinase Nek4 (Homo sapiens) (UniProt P51957); assay: Inhibition of human NEK4 using myelin basic protein as substrate at 1 uM in presence of 32P-ATP by Hotspot assay relative to control; values are per cent of control
[10] = target: T2, Calcium/calmodulin-dependent protein kinase type IV (Homo sapiens) (UniProt Q16566); assay: Residual activity of human CAMK4 using KKLNRTLSFAEPG as substrate at 1 uM in presence of 32P-ATP by Hotspot assay relative to control
T2 sequence (whole entry): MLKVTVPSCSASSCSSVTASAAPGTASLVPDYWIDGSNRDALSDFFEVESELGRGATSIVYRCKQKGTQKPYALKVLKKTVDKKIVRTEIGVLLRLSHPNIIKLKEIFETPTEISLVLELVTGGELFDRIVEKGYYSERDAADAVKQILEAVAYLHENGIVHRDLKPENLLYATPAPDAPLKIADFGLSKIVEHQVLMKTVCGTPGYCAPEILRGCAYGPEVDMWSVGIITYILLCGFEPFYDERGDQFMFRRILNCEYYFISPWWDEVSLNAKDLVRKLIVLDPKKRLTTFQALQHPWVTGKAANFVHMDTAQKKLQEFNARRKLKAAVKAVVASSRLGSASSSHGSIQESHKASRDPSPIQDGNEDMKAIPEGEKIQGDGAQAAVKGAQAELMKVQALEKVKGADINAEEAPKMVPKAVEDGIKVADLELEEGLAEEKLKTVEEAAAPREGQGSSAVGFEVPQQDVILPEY

[11] = target: T3, Serine/threonine-protein kinase Chk1 (Homo sapiens) (UniProt O14757); assay: Inhibition of human CHK1 using KKKVSRSGLYRSPSMPENLNRPR as substrate at 1 uM in presence of 32P-ATP by Hotspot assay relative to control; values are per cent of control
T3 sequence (whole entry): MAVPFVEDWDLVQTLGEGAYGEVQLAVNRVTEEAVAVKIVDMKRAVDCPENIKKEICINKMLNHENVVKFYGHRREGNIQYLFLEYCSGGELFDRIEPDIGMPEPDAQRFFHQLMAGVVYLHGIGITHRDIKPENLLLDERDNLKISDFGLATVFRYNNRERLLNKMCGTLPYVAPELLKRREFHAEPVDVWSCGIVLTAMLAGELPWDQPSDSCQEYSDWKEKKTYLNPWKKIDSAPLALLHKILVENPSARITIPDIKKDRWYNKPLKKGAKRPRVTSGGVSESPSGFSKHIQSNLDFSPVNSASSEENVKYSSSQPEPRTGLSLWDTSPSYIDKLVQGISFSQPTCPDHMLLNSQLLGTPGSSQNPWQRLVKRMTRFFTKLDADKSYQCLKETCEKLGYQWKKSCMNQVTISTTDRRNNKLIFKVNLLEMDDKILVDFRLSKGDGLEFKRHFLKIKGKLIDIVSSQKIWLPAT

[12] = system: NIH3T3; assay: Inhibition of TNF-alpha induced necroptosis in mouse 3T3SA cells assessed as increase in cell viability at 0.04 to 1 uM incubated for 18 hrs in presence of zVAD by Cell Titer-Glo luminescent cell viability assay; type: functional, cell-based; settings: dose 0.04-1 µM

| Compound | residual activity [1] [%] | residual activity [2] [%] | residual activity [3] [%] | residual activity [4] [%] | residual activity [5] [%] | residual activity [6] [%] | residual activity [7] [%] | residual activity [8] [%] | residual activity [9] [%] | residual activity [10] [%] | residual activity [11] [%] | inhibition [12] |
| --- | --- | --- | --- | --- | --- | --- | --- | --- | --- | --- | --- | --- |
| CNC(=O)c1ccc2c(c1)ncn2-c1ccc(CC(=O)OC(C)(C)C)cc1 | 91.3 | 101 | 90.8 | 93.8 | 96.8 | 99.6 | 80.4 | 103 | 96.3 | 91.8 | 84.6 | inactive |
| Cc1cc(-c2cnc(N)c3c(-c4ccc5scnc5c4)csc23)n(C)n1 | 98.9 | 93.7 | 93.7 | 98.4 | 91.3 | 100 | 101 | 99.4 | 97.9 | 88.6 | 100 | Active |
| CC(C)S(=O)(=O)c1ccc2nccc(Nc3ccc4scnc4c3)c2c1 | 97.6 | 102 | 94.9 | 89.3 | 102 | 99 | 102 | 101 | 95.6 | 91 | 100 | Active |
